This note sets out measurements from patent publication US9663536B2, “Inhibitors of human immunodeficiency virus replication” (priority 2013, dated 2017).

This experiment deals with recombinant NL-Rluc virus. Nature of the experiment: Inhibition of HIV replication (NL-Rluc virus in MT-2 cells, luciferase readout). The format is cell-based. The following applies: Human immunodeficiency virus 1, MT2, 120 h.
On to `Cc1nc2cc3nn2c(c1[C@H](OC(C)(C)C)C(=O)O)N1CCC(C)(CC1)OC/C=C/Cc1ccccc1Cc1cnc-3s1` (single isomer, unassigned) [Example 1], for which the EC50 was 2 nM.

For `Cc1nc2cc3nn2c(c1[C@H](OC(C)(C)C)C(=O)O)N1CCC(C)(CC1)OC/C=C\CCc1ccccc1Cc1cnc-3s1` (single isomer, unassigned) [Example 2], the EC50 was 2 nM.

As to `Cc1nc2cc3nn2c(c1[C@H](OC(C)(C)C)C(=O)O)N1CCC(C)(/C=C/CCCCc2cc(F)ccc2Cc2cnc-3s2)CC1` (single isomer, unassigned) [Example 15], the EC50 worked out at 13 nM.

As for `Cc1nc2cc3nn2c(c1[C@H](OC(C)(C)C)C(=O)O)N1CCC(C)(/C=C/CCCc2cc(F)ccc2Cc2cnc-3s2)CC1` (single isomer, unassigned) [Example 16], the EC50 was 12 nM.

`Cc1nc2cc3nn2c(c1[C@H](OC(C)(C)C)C(=O)O)N1CCC(C)(CC/C=C/CCc2cc(F)ccc2Cc2cnc-3s2)CC1` (single isomer, unassigned) [Example 17]: the EC50 came out at 18 nM.

In the case of `Cc1nc2cc3nn2c(c1[C@H](OC(C)(C)C)C(=O)O)N1CCC(C)(C/C=C/CCc2cc(F)ccc2Cc2cnc-3s2)CC1` (single isomer, unassigned) [Example 18], the EC50 was found to be 11 nM.

Take `Cc1nc2cc3nn2c(c1[C@H](OC(C)(C)C)C(=O)O)N1CCC(C)(CC/C=C/CCc2ccc(F)cc2Cc2cnc-3s2)CC1` (single isomer, unassigned) [Example 21]: the EC50 is 13 nM.

In the case of `Cc1nc2cc3nn2c(c1[C@H](OC(C)(C)C)C(=O)O)N1CCC(C)(CC/C=C\CCc2ccc(F)cc2Cc2cnc-3s2)CC1` (single isomer, unassigned) [Example 22], the EC50 was 35 nM.

`Cc1nc2cc3nn2c(c1[C@H](OC(C)(C)C)C(=O)O)N1CCC(C)(C/C=C/CCc2ccc(F)cc2Cc2cnc-3s2)CC1` (single isomer, unassigned) [Example 23]: the EC50 was determined as 7 nM.

As for `Cc1nc2cc3nn2c(c1[C@H](OC(C)(C)C)C(=O)O)N1CCC(C)(CC1)OC/C=C/CCc1cccc(c1)Cc1cnc-3s1` [Example 3, (2S)-2-(tert-Butoxy)-2-[(22E)-4,26-dimethyl-25-oxa-32-thia-1,5,7,8,11-pentaazahexacyclo[24.2.2.1^6,9.1^10,13.1^15,19.0^2,7]tritriaconta-2,4,6(33),8,10,12,15(31),16,18,22-decaen-3-yl]acetic acid], the EC50 is 3 nM.

For the compound `Cc1nc2cc3nn2c(c1[C@H](OC(C)(C)C)C(=O)O)N1CCC(C)(CC1)OCCCCCc1cccc(c1)Cc1cnc-3s1` [Example 4, (2S)-2-(tert-Butoxy)-2-{4,26-dimethyl-25-oxa-32-thia-1,5,7,8,11-pentaazahexacyclo[24.2.2.1^6,9.1^10,13.1^15,19.0^2,7]tritriaconta-2,4,6(33),8,10,12,15(31),16,18-nonaen-3-yl}acetic acid], the EC50 worked out at 22 nM.

Take `Cc1nc2cc3nn2c(c1[C@H](OC(C)(C)C)C(=O)O)N1CCC(C)(CC1)OCCCCOc1ccccc1Cc1cnc-3s1` [Example 5, (2S)-2-(tert-Butoxy)-2-{4,27-dimethyl-21,26-dioxa-32-thia-1,5,7,8,11-pentaazahexacyclo[25.2.2.1^6,9.1^10,13.0^2,7.0^15,20]tritriaconta-2,4,6(33),8,10,12,15(20),16,18-nonaen-3-yl}Acetic Acid]: the EC50 was determined as 6 nM.

Turning to `Cc1nc2cc3nn2c(c1[C@H](OC(C)(C)C)C(=O)O)N1CCC(C)(CC1)OCCCCOc1ccccc1Cc1cnc-3o1` [Example 6, (2S)-2-(tert-Butoxy)-2-{4,27-dimethyl-21,26,32-trioxa-1,5,7,8,11-pentaazahexacyclo[25.2.2.1^6,9.1^10,13.0^2,7.0^15,20]tritriaconta-2,4,6(33),8,10,12,15(20),16,18-nonaen-3-yl}acetic acid], the EC50 came to 4 nM.

Regarding `Cc1nc2cc3nn2c(c1[C@H](OC(C)(C)C)C(=O)O)N1CCC(C)(CC1)OCC=CCOc1ccccc1Cc1cnc-3s1` [Example 7, (2S)-2-(tert-Butoxy)-2-[4,27-dimethyl-21,26-dioxa-32-thia-1,5,7,8,11-pentaazahexacyclo[25.2.2.1^6,9.1^10,13.0^2,7.0^15,20]tritriaconta-2,4,6(33),8,10,12,15(20),16,18,23-decaen-3-yl]acetic acid], the EC50 was determined as 6 nM.

For the compound `Cc1nc2cc3nn2c(c1[C@H](OC(C)(C)C)C(=O)O)N1CCC(C)(CC1)OC/C=C/CCOc1ccccc1Cc1cnc-3s1` [Example 8, (2S)-2-(tert-Butoxy)-2-[(24E)-4,28-dimethyl-21,27-dioxa-33-thia-1,5,7,8,11-pentaazahexacyclo[26.2.2.1^6,9.1^10,13.0^2,7.0^15,20]tetratriaconta-2,4,6(34),8,10,12,15(20),16,18,24-decaen-3-yl]acetic Acid], the EC50 was found to be 8 nM.

Regarding `Cc1nc2cc3nn2c(c1[C@H](OC(C)(C)C)C(=O)O)N1CCC(C)(CC1)OCCCCCOc1ccccc1Cc1cnc-3s1` [Example 9, (2S)-2-(tert-Butoxy)-2-{4,28-dimethyl-21,27-dioxa-33-thia-1,5,7,8,11-pentaazahexacyclo[26.2.2.1^6,9.1^10,13.0^2,7.0^15,20]tetratriaconta-2,4,6(34),8,10,12,15(20),16,18-nonaen-3-yl}acetic acid], the EC50 amounted to 2 nM.

For `Cc1nc2cc3nn2c(c1[C@H](OC(C)(C)C)C(=O)O)N1CCC(C)(CC1)OC/C=C/COc1ccccc1Cc1cnc-3o1` [Example 10, (2S)-2-(tert-Butoxy)-2-[(23E)-4,27-dimethyl-21,26,32-trioxa-1,5,7,8,11-pentaazahexacyclo[25.2.2.1^6,9.1^10,13.0^2,7.0^15,20]tritriaconta-2,4,6(33),8,10,12,15 (20),16,18,23-decaen-3-yl]acetic acid], the EC50 was 2 nM.

As to `Cc1nc2cc3nn2c(c1[C@H](OC(C)(C)C)C(=O)O)N1CCC(C)(CC1)OCCCC[C@@H](C)Oc1ccccc1Cc1cnc-3s1` [Example 11], the EC50 was determined as 3 nM.

With `Cc1nc2cc3nn2c(c1[C@H](OC(C)(C)C)C(=O)O)N1CCC(C)(/C=C/C=C/CCc2ccccc2Cc2cnc-3s2)CC1` [Example 12, (2S)-2-(tert-Butoxy)-2-[(23E,25E)-4,27-dimethyl-32-thia-1,5,7,8,11-pentaazahexacyclo[25.2.2.1^6,9.1^10,13.0^2,7.0^15,20]tritriaconta-2,4,6(33),8,10,12,15(20),16,18,23,25-undecaen-3-yl]acetic acid], the EC50 stood at 8 nM.

`Cc1nc2cc3nn2c(c1[C@H](OC(C)(C)C)C(=O)O)N1CCC(C)(/C=C/CCCCc2ccccc2Cc2cnc-3s2)CC1` [Example 13, (2S)-2-(tert-Butoxy)-2-[(25E)-4,27-dimethyl-32-thia-1,5,7,8,11-pentaazahexacyclo[25.2.2.1^6,9.1^10,13.0^2,7.0^15,20]tritriaconta-2,4,6(33),8,10,12,15(20),16,18,25-decaen-3-yl]acetic acid]: the half-maximal effective concentration (EC50) was determined as 12 nM.

On to `Cc1nc2cc3nn2c(c1[C@H](OC(C)(C)C)C(=O)O)N1CCC(C)(CCCCCCc2ccccc2Cc2cnc-3s2)CC1` [Example 14, (2S)-2-(tert-Butoxy)-2-{4,27-dimethyl-32-thia-1,5,7,8,11-pentaazahexacyclo[25.2.2.1^6,9.1^10,13.0^2,7.0^15,20]tritriaconta-2,4,6(33),8,10,12,15(20),16,18-nonaen-3-yl}acetic acid], for which the 50% effective concentration (EC50) came to 41 nM.

On to `Cc1nc2cc3nn2c(c1[C@H](OC(C)(C)C)C(=O)O)N1CCC(C)(CC/C=C/C[C@@H](C)Oc2cc(F)ccc2Cc2cnc-3s2)CC1` [Example 19, (2S)-2-(tert-Butoxy)-2-[(22R,24E)-18-fluoro-4,22,28-trimethyl-21-oxa-33-thia-1,5,7,8,11-pentaazahexacyclo[26.2.2.1^6,9.1^10,13.0^2,7.0^15,20]tetratriaconta-2,4,6(34),8,10,12,15(20),16,18,24-decaen-3-yl]acetic acid], for which the EC50 came to 17 nM.

In the case of `Cc1nc2cc3nn2c(c1[C@H](OC(C)(C)C)C(=O)O)N1CCC(C)(CC/C=C\C[C@@H](C)Oc2cc(F)ccc2Cc2cnc-3s2)CC1` [Example 20, (2S)-2-(tert-Butoxy)-2-[(22R,24Z)-18-fluoro-4,22,28-trimethyl-21-oxa-33-thia-1,5,7,8,11-pentaazahexacyclo[26.2.2.1^6,9.1^10,13.0^2,7.0^15,20]tetratriaconta-2,4,6(34),8,10,12,15(20),16,18,24-decaen-3-yl]acetic acid], the EC50 was 32 nM.

Regarding `Cc1nc2cc3nn2c(c1[C@H](OC(C)(C)C)C(=O)O)N1CCC(C)(CC/C=C/COc2ccccc2Cc2cnc-3s2)CC1` [Example 24, (2S)-2-(tert-Butoxy)-2-[(23E)-4,27-dimethyl-21-oxa-32-thia-1,5,7,8,11-pentaazahexacyclo[25.2.2.1^6,9.1^10,13.0^2,7.0^15,20]tritriaconta-2,4,6(33),8,10,12,15(20),16,18,23-decaen-3-yl]acetic Acid], the EC50 was determined as 11 nM.

In the case of `Cc1nc2cc3nn2c(c1[C@H](OC(C)(C)C)C(=O)O)N1CCC(C)(CC1)OCCCCOc1ccccc1Cc1cnn-3c1` [Example 25, (2S)-2-(tert-Butoxy)-2-{4,27-dimethyl-21,26-dioxa-1,5,7,8,10,11-hexaazahexacyclo[25.2.2.1^6,9.1^10,13.0^2,7.0^15,20]tritriaconta-2,4,6(33),8,11,13(32),15(20),16,18-nonaen-3-yl}acetic acid], the EC50 turned out to be 5 nM.

As for `Cc1nc2cc3nn2c(c1[C@H](OC(C)(C)C)C(=O)O)N1CCC(C)(CC1)OC/C=C/COc1ccccc1Cc1cnn-3c1` [Example 26, (2S)-2-(tert-Butoxy)-2-[(23E)-4,27-dimethyl-21,26-dioxa-1,5,7,8,10,11-hexaazahexacyclo[25.2.2.1^6,9.1^10,13.0^2,7.0^15,20]tritriaconta-2,4,6(33),8,11,13(32),15(20),16,18,23-decaen-3-yl]acetic acid], the EC50 came out at 2 nM.

Regarding `Cc1nc2cc3nn2c(c1[C@H](OC(C)(C)C)C(=O)O)N1CCC(C)(CC1)OC/C=C/COc1c(F)cccc1Cc1cnn-3c1` [Example 27, (2S)-2-(tert-Butoxy)-2-[(23E)-19-fluoro-4,27-dimethyl-21,26-dioxa-1,5,7,8,10,11-hexaazahexacyclo[25.2.2.1^6,9.1^10,13.0^2,7.0^15,20]tritriaconta-2,4,6(33),8,11,13(32),15(20),16,18,23-decaen-3-yl]acetic acid], the EC50 was 48 nM.

By EC50 is commonly meant the concentration that produces a half-maximal response.
